Test results as given in patent publication EP0519427A2, “N-substituted-3-iodopropiolamide, production and use thereof” (priority 1991, dated 1992).
Read-outs that look alike come from different tables or passages of the source.

Tests used:
Assay in all cases: Antibacterial and antifungal activity, paper disc method
Assay type in all cases: cell-based
[1] = system: Saccharomyces cerevisiae IFO-0210
Description: (§1) Antibacterial and antifungal activity tests for various bacteria and fungi were conducted. The tests were carried out by the conventional paper disc method. That is, a paper disc (d=8 mm) was dipped in aqueous or methanol solution of the compound of the present invention (concentration : 1,000 µg/ml), then dried and used.
(§2) As bacteria to be tested, • ① Staphylococcus aureus IFO-12732 [hereinafter abbreviated to Sta.] • ② Bacillus subtilis IFO-13719 [Bac.] • ③ Escherichia coli IFO-3301 [Esc.] were used. As yeast to be tested, • ④ Saccharomyces cerevisiae IFO-0210 [Sac.] • ⑤ Candida albicans IFO-0583 [Can.] were used. As fungi to be tested, • ⑥ Aspergillus niger IFO-4407 [Asp.] • ⑦ Penicillium citrinum IFO-7784 [Pen.] • ⑧ Tyromyces palustris IFO-30339 [Tyr.] • ⑨ Coriolus versicolor IFO-30340 [Cor.] were used. Among the above fungi, Tyr. and Cor. are wood rot fungi.
(§3) As the test media, agar media shown below were used. That is, TSA (Trypticase Soy Agar) medium was used for Sta., Bac. and Esc.; YNB (Yeast Nitrogen Base) agar medium was used for Sac. and Can.; SDA (Sabouraud Dextrose Agar) medium was used for Asp. and Pen.; and PDA (Potato Dextrose Agar) medium was used for Try. and Cor.
(§4) The determination of antibacterial and antifungal effectiveness was carried out by measuring the diameter of the growth inhibition circle generated on the circumference of the paper disc. The indication of effectiveness is given as follows: -: no growth inhibition circle was observed. +: diameter of the growth inhibition circle was 9 - 20 mm ++: diameter of the growth inhibition circle was 21 - 40 mm +++: diameter of the growth inhibition circle was 41 mm or more

[2] = system: Penicillium citrinum IFO-7784
Description: as §1, §2, §3, §4

[3] = system: Staphylococcus aureus IFO-12732
Description: as §1, §2, §3, §4

[4] = system: Candida albicans IFO-0583
Description: as §1, §2, §3, §4

[5] = system: Coriolus versicolor IFO-30340; details: Trametes versicolor
Description: as §1, §2, §3, §4

[6] = system: Escherichia coli IFO-3301; details: for zone of inhibition at 1000 µg/mL: Escherichia coli
Description: as §1, §2, §3, §4

[7] = system: Aspergillus niger IFO-4407
Description: as §1, §2, §3, §4

[8] = system: Tyromyces palustris IFO-30339; details: read-out: diameter of the growth inhibition circle, Tyr.(IFO-30339)
Description: as §1, §2, §3, §4

[9] = system: Bacillus subtilis IFO-13719; details: Bacillus subtilis
Description: as §1, §2, §3, §4

[10] = IFO0210, paper disc d=8 mm dipped in 1,000 µg/ml solution, YNB agar medium, read-out: diameter of the growth inhibition circle, Sac.(IFO-0210)
[11] = IFO7784, paper disc d=8 mm dipped in 1,000 µg/ml solution, SDA medium, read-out: diameter of the growth inhibition circle, Pen.(IFO-7784)
[12] = IFO12732, paper disc d=8 mm dipped in 1,000 µg/ml solution, TSA medium, read-out: diameter of the growth inhibition circle, Sta.(IFO-12732)
[13] = IFO0583, paper disc d=8 mm dipped in 1,000 µg/ml solution, YNB agar medium, read-out: diameter of the growth inhibition circle, Can.(IFO-0583)
[14] = IFO30340, paper disc d=8 mm dipped in 1,000 µg/ml solution, PDA medium, read-out: diameter of the growth inhibition circle, Cor.(IFO-30340)
[15] = IFO3301, paper disc d=8 mm dipped in 1,000 µg/ml solution, TSA medium, read-out: diameter of the growth inhibition circle, Esc.(IFO-3301)
[16] = IFO4407, paper disc d=8 mm dipped in 1,000 µg/ml solution, SDA medium, read-out: diameter of the growth inhibition circle, Asp.(IFO-4407)
[17] = paper disc d=8 mm dipped in 1,000 µg/ml solution, PDA medium
[18] = IFO13719, paper disc d=8 mm dipped in 1,000 µg/ml solution, TSA medium, read-out: diameter of the growth inhibition circle, Bac.(IFO-13719)
[19] = paper disc d=8 mm dipped in 1,000 µg/ml solution, TSA medium

| Compound | zone of inhibition at 1000 µg/mL [1, 10] [mm] | zone of inhibition at 1000 µg/mL [2, 11] [mm] | zone of inhibition at 1000 µg/mL [3, 12] [mm] | zone of inhibition at 1000 µg/mL [4, 13] [mm] | zone of inhibition at 1000 µg/mL [5, 14] [mm] | zone of inhibition at 1000 µg/mL [6, 15] [mm] | zone of inhibition at 1000 µg/mL [7, 16] [mm] | zone of inhibition at 1000 µg/mL [8, 17] [mm] | zone of inhibition at 1000 µg/mL [9, 18] [mm] | diameter of the growth inhibition circle, Esc.(IFO-3301) [6, 19] | zone of inhibition at 1000 µg/mL ([1]; IFO0210, read-out: diameter of the growth inhibition circle, Sac.(IFO-0210)) [mm] | zone of inhibition at 1000 µg/mL ([2]; IFO7784, read-out: diameter of the growth inhibition circle, Pen.(IFO-7784)) [mm] | zone of inhibition at 1000 µg/mL ([3]; IFO12732, read-out: diameter of the growth inhibition circle, Sta.(IFO-12732)) [mm] | zone of inhibition at 1000 µg/mL ([4]; IFO0583, read-out: diameter of the growth inhibition circle, Can.(IFO-0583)) [mm] | zone of inhibition at 1000 µg/mL ([5]; IFO30340, read-out: diameter of the growth inhibition circle, Cor.(IFO-30340)) [mm] | zone of inhibition at 1000 µg/mL ([6]; IFO3301, read-out: diameter of the growth inhibition circle, Esc.(IFO-3301)) [mm] | zone of inhibition at 1000 µg/mL ([7]; IFO4407, read-out: diameter of the growth inhibition circle, Asp.(IFO-4407)) [mm] | zone of inhibition at 1000 µg/mL [8] [mm] | zone of inhibition at 1000 µg/mL ([9]; IFO13719, read-out: diameter of the growth inhibition circle, Bac.(IFO-13719)) [mm] |
| --- | --- | --- | --- | --- | --- | --- | --- | --- | --- | --- | --- | --- | --- | --- | --- | --- | --- | --- | --- |
| O=C(C#CI)Nc1cccc(Cl)c1 [Example 3, N-(3-Chlorophenyl)-3-iodopropiolamide] | 21 to 40 | > 41 | 21 to 40 | 21 to 40 | > 41 | 9 to 20 | 21 to 40 | > 41 | 21 to 40 |  |  |  |  |  |  |  |  |  |  |
| O=C(C#CI)NCCc1ccccc1 [Example 16, N-(2-Phenylethyl)-3-iodopropiolamide] | > 41 | > 41 | 21 to 40 | 21 to 40 | > 41 | 9 to 20 | 21 to 40 | > 41 | 21 to 40 |  |  |  |  |  |  |  |  |  |  |
| O=C(C#CI)Nc1cccc(F)c1 [Example 17, N-(3-Fluorophenyl)-3-iodopropiolamide] | 21 to 40 | > 41 | 21 to 40 | 21 to 40 | > 41 | 9 to 20 | 21 to 40 | > 41 | 21 to 40 |  |  |  |  |  |  |  |  |  |  |
| CCCCN(CCCC)C(=O)C#CI [Example 18, N,N-Di(n-butyl)-3-iodopropiolamide] | 21 to 40 | > 41 | 21 to 40 | 21 to 40 | > 41 |  | 21 to 40 | > 41 | 9 to 20 | - |  |  |  |  |  |  |  |  |  |
| O=C(C#CI)N1CCCCC1 [Example 19, 1-(3-Iodopropioloyl)piperidine] | 21 to 40 | > 41 | 21 to 40 | 21 to 40 | > 41 | 9 to 20 | 21 to 40 | > 41 | 21 to 40 |  |  |  |  |  |  |  |  |  |  |
| CC1COCC(C)N1C(=O)C#CI (stereo not drawn) [Example 20, 4-(3-Iodopropioloyl)-3,5-dimethylmorpholine] | 21 to 40 | > 41 | 21 to 40 | 9 to 20 | > 41 |  | 21 to 40 | > 41 | 9 to 20 | - |  |  |  |  |  |  |  |  |  |
| O=C(C#CI)N1CCN(c2ccccc2)CC1 [Example 21, 1-(3-Iodopropioloyl)-4-phenylpiperazine] | 21 to 40 | > 41 | 21 to 40 | 21 to 40 | > 41 |  | 21 to 40 | > 41 | 9 to 20 | - |  |  |  |  |  |  |  |  |  |
| O=C(C#CI)NC1CCCCC1 [Example 22, N-Cyclohexyl-3-iodopropiolamide] | 21 to 40 | > 41 | 21 to 40 | 21 to 40 | > 41 | 9 to 20 | 21 to 40 | > 41 | 9 to 20 |  |  |  |  |  |  |  |  |  |  |
| C=CCNC(=O)C#CI [Example 23, N-Allyl-3-iodopropiolamide] |  |  |  |  |  |  |  |  |  |  | 21 to 40 | > 41 | 21 to 40 | 21 to 40 | > 41 | 9 to 20 | 21 to 40 | > 41 | 9 to 20 |
| O=C(C#CI)Nc1ccc(Cl)cc1 [Example 24, N-(4-Chlorophenyl)-3-iodopropiolamide] | 21 to 40 | > 41 | 21 to 40 | 21 to 40 | > 41 | 9 to 20 | 21 to 40 | > 41 | 9 to 20 |  |  |  |  |  |  |  |  |  |  |
| O=C(C#CI)Nc1ccc(Cl)cc1Cl [Example 25, N-(2,4-Dichlorophenyl)-3-iodopropiolamide] | 21 to 40 | > 41 | 21 to 40 | 21 to 40 | > 41 | 9 to 20 | 21 to 40 | > 41 | 9 to 20 |  |  |  |  |  |  |  |  |  |  |
| O=C(C#CI)Nc1cccc(C(F)(F)F)c1 [Example 26, N-(3-Trifluoromethylphenyl)-3-iodopropiolamide] | 21 to 40 | > 41 | 21 to 40 | 21 to 40 | > 41 | 9 to 20 | 21 to 40 | 21 to 40 | 9 to 20 |  |  |  |  |  |  |  |  |  |  |
